{"source": "paper PMC13266999", "about": "“Designing Antibiotics with Inherent Resistance to Efflux as a Strategy to Revive Discovery against Multidrug-Resistant Pathogens” (Journal of Medicinal Chemistry, 2026)", "key": {"S. aureus [1]": {"tested_on": "S. aureus", "assay": "MIC (microbroth dilution)", "format": "cell-based, Staphylococcus aureus", "settings": "for MIC: Staphylococcus aureus", "method_in_brief": "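Overnight stationary-phase cultures back-diluted and tested by broth microdilution with 2-fold compound series. MIC is lowest concentration with no visible growth, with OD600 also read. Separate runs included polymyxin B nonapeptide at 30 μg/mL final as outer-membrane permeabilizer.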"}, "A. baumannii": {"tested_on": "A. baumannii", "assay": "Mutation frequency and agar MIC", "format": "cell-based", "settings": "A118", "protocol": "(§1) Mutation frequencies were performed on solid media at supra-inhibitory concentrations. First, the agar MIC was performed to account for any issues in solubility of compounds in solid media. Agar plates were prepared with 2-fold dilutions of compound.\n(§2) For the mutation frequency assay, bacteria from an overnight culture were grown to mid exponential phase in liquid broth, then 100 μL was spread onto an agar plate containing compound at concentrations above the agar MIC. A Miles-Misra was also conducted on an antibiotic-free agar plate to determine the CFU/mL of the starting population. […] The mutation frequency was calculated by dividing the number of colonies on supra inhibitory con-centration plates by the starting population."}, "S. aureus [2]": {"tested_on": "S. aureus", "assay": "Mutation frequency and agar MIC", "format": "cell-based", "protocol": "as §1, §2"}, "E. coli": {"tested_on": "E. coli", "assay": "Mutation frequency and agar MIC", "format": "cell-based", "settings": "NCTC 12241", "protocol": "as §1, §2"}, "S. dysgalactiae": {"tested_on": "S. dysgalactiae", "assay": "MIC (microbroth dilution)", "format": "cell-based", "settings": "for MIC: Streptococcus dysgalactiae", "method_in_brief": "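Overnight stationary-phase bacteria were back-diluted and tested by broth microdilution, Streptococcus spp. in cation-adjusted Mueller Hinton broth plus 2.5% lysed horse blood, other species in tryptic soy broth. Some wells also received polymyxin B nonapeptide at 30 μg/mL final. Growth checked visually with OD600; MIC = minimum concentration showing no growth.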"}}, "note": "Where two headings read alike, the source gives them in different places."}
{"smiles": "Cc1cc(C)nc(N[C@@H]2CCN(c3c(F)cc4c(=O)c(C(=O)O)cn5c4c3OC[C@@H]5C)C2)n1", "note": "[Compound 50, (S)-10-((R)-3-((4,6-Dimethylpyrimidin-2-yl)amino)pyrrolidin-1-yl)-9-fluoro-3-methyl-7-oxo-2,3-dihydro-7H-[1,4]oxazino[2,3,4-ij]quinoline-6-carboxylic acid]", "values": [{"measurement": "MIC", "setting": "S. aureus [1]; MRSA / VISA, MRSA VISA (CDC #0219), read-out: MIC", "value": 4, "unit": "µg/mL"}, {"measurement": "MIC", "setting": "S. aureus [1]; MRSA / VISA, MRSA VISA (CDC #0220), read-out: MIC", "value": 1, "unit": "µg/mL"}, {"measurement": "MIC", "setting": "S. aureus [1]; MRSA / VISA, MRSA VISA (CDC #0221), read-out: MIC", "value": 0.5, "unit": "µg/mL"}, {"measurement": "MIC", "setting": "S. aureus [1]; MRSA / VISA, MRSA VISA (CDC #0223), read-out: MIC", "value": 1, "unit": "µg/mL"}, {"measurement": "MIC", "setting": "S. aureus [1]; MRSA / VISA, MRSA VISA (CDC #0225), read-out: MIC", "value": 1, "unit": "µg/mL"}, {"measurement": "MIC", "setting": "S. aureus [1]; MRSA / VISA, MRSA VISA (CDC #0226), read-out: MIC", "value": 0.03, "unit": "µg/mL"}, {"measurement": "MIC", "setting": "S. aureus [1]; MRSA / VISA, MRSA VISA (CDC #0227), read-out: MIC", "value": 1, "unit": "µg/mL"}, {"measurement": "MIC", "setting": "S. aureus [1]; MRSA / VISA, MRSA VISA (CDC AR-BANK #0215), read-out: MIC", "value": 16, "unit": "µg/mL"}, {"measurement": "MIC", "setting": "S. aureus [1]; MRSA / VISA, MRSA VISA (CDC AR-BANK #0216), read-out: MIC", "value": 0.5, "unit": "µg/mL"}, {"measurement": "MIC", "setting": "S. aureus [1]; MRSA / VISA, MRSA VISA (CDC AR-BANK #0217), read-out: MIC", "value": 1, "unit": "µg/mL"}, {"measurement": "MIC", "setting": "S. aureus [1]; MRSA / VISA, MRSA VISA (Mu50), read-out: MIC", "value": 2, "unit": "µg/mL"}, {"measurement": "MIC", "setting": "S. aureus [1]; MRSA / VISA, MRSA VISA Mupirocin-R (CDC #0218), read-out: MIC", "value": 1, "unit": "µg/mL"}, {"measurement": "MIC", "setting": "S. aureus [1]; MRSA, MRSA DAP-NS (ECL 2963621), read-out: MIC", "value": 0.25, "unit": "µg/mL"}, {"measurement": "MIC", "setting": "S. aureus [1]; MRSA, VanA MRSA (VRS1), read-out: MIC", "value": 1, "unit": "µg/mL"}, {"measurement": "MIC", "setting": "S. aureus [1]; MRSA, VanA MRSA (VRS2), read-out: MIC", "value": 0.5, "unit": "µg/mL"}, {"measurement": "MIC", "setting": "S. aureus [1]; MRSA, VanA MRSA (VRS3a), read-out: MIC", "value": 0.5, "unit": "µg/mL"}, {"measurement": "MIC", "setting": "S. aureus [1]; MSSA / VISA, MSSA VISA (CDC #0222), read-out: MIC", "value": 0.03, "unit": "µg/mL"}, {"measurement": "MIC", "setting": "S. aureus [1]; NCTC13277, NCTC 13277, + 4% albumin, read-out: MIC", "value": 4, "unit": "µg/mL"}, {"measurement": "MIC", "setting": "S. aureus [1]; NCTC13616, NCTC 13616, + 4% albumin, read-out: MIC", "value": 2, "unit": "µg/mL"}, {"measurement": "MIC", "setting": "S. aureus [1]; NRS 3 / VISA, VISA (NRS3), read-out: MIC", "value": 0.5, "unit": "µg/mL"}, {"measurement": "MIC", "setting": "S. aureus [1]; NRS 12 / VISA, VISA (NRS12), read-out: MIC", "value": 0.06, "unit": "µg/mL"}, {"measurement": "MIC", "setting": "S. aureus [1]; NRS 56 / VISA, VISA (NRS56), read-out: MIC", "value": 1, "unit": "µg/mL"}, {"measurement": "MIC", "setting": "S. aureus [1]; NRS72, Sanger-476, NRS72, read-out: MIC", "value": 0.03, "unit": "µg/mL"}, {"measurement": "MIC", "setting": "S. aureus [1]; NRS157, NRS157, read-out: MIC", "value": 0.03, "unit": "µg/mL"}, {"measurement": "MIC", "setting": "S. aureus [1]; SA-1199, read-out: MIC", "value": 0.016, "unit": "µg/mL"}, {"measurement": "MIC", "setting": "S. aureus [1]; SA-1199B (NorA-overexpressing)", "value": 0.016, "unit": "µg/mL"}, {"measurement": "MIC", "setting": "S. aureus [1]; VRSA, VRSA (ECL 2963646), read-out: MIC", "value": 0.5, "unit": "µg/mL"}, {"measurement": "MIC", "setting": "S. aureus [1]; VanA (VRS11b), read-out: MIC", "value": 2, "unit": "µg/mL"}, {"measurement": "MIC", "setting": "S. aureus [1]; majority of MSSA and MRSA isolates, read-out: MIC", "value": "≤ 0.0312", "unit": "µg/mL"}, {"measurement": "fold increase in MIC in the presence of 4% albumin", "setting": "S. aureus [1]; across the strain panel", "value": "2- to 8 fold"}, {"measurement": "Agar MIC", "setting": "A. baumannii", "value": 0.25, "unit": "µg/mL"}, {"measurement": "Agar MIC", "setting": "S. aureus [2]; ATCC 9144", "value": 0.03, "unit": "µg/mL"}, {"measurement": "Agar MIC", "setting": "S. aureus [2]; NCTC 13616", "value": 0.5, "unit": "µg/mL"}, {"measurement": "Agar MIC", "setting": "E. coli", "value": 0.25, "unit": "µg/mL"}, {"measurement": "MIC", "setting": "S. dysgalactiae; 10238, read-out: MIC", "value": "≤ 0.03", "unit": "µg/mL"}, {"measurement": "MIC", "setting": "S. dysgalactiae; 13759, read-out: MIC", "value": "≤ 0.03", "unit": "µg/mL"}, {"measurement": "MIC", "setting": "S. dysgalactiae; 13762, read-out: MIC", "value": "≤ 0.03", "unit": "µg/mL"}, {"measurement": "MIC", "setting": "S. dysgalactiae; 81251, read-out: MIC", "value": "≤ 0.03", "unit": "µg/mL"}, {"measurement": "MIC", "setting": "S. dysgalactiae; 81553", "value": 0.125, "unit": "µg/mL"}, {"measurement": "MIC", "setting": "S. dysgalactiae; 84143, read-out: MIC", "value": 0.06, "unit": "µg/mL"}, {"measurement": "MIC", "setting": "S. dysgalactiae; 84557, read-out: MIC", "value": "≤ 0.03", "unit": "µg/mL"}, {"measurement": "MIC", "setting": "S. dysgalactiae; 84574, read-out: MIC", "value": 0.06, "unit": "µg/mL"}, {"measurement": "MIC", "setting": "S. dysgalactiae; n = 8, read-out: modal MIC", "value": "≤ 0.03", "unit": "µg/mL"}, {"measurement": "MIC range", "setting": "S. dysgalactiae; n = 8", "value": "≤ 0.03 to 0.125", "unit": "µg/mL"}]}
